According to patent US20050130890A1, “Amyloid beta is a ligand for FPR class receptors” (priority 2001, published 2005):

Legend:
[1] = system: human monocytes; assay: Chemotaxis (migration) of human monocytes, 48-well chamber; type: cell-based
Description: (§1) Reagents and cells. Aβ peptide (Aβ42) and the peptide with reversed sequence (Aβ42-1) were purchased from California Peptide Research (Napa, Calif.). All peptides were examined for endotoxin contamination and were negative at highest concentrations used in the study. Human peripheral blood monocytes were isolated from buffy coats (National Institutes of Health Clinical Center, Bethesda, Md.) enriched for mononuclear cells by using iso-osmotic Percoll gradient. The purity of the cell preparations was examined by morphology and was >90%. Rat basophilic leukemia cell line (RBL-2H3) transfected with epitope-tagged N-formylpeptide receptor (FPR) (designated ETFR) was a kind gift of Dr. R. Snyderman (Duke University, Durham, N.C.). cDNA cloning and establishment of FPRL1-transfected human embryonic kidney (HEK) 293 cells (FPRL1/293) were described previously (Gao J. L. & Murphy P. M. 1993 J Biol Chem 268:[…]). All the transfected cells were maintained in culture media as described (Su S. B. et al. 1999 J Exp Med 189:395-402).
(§2) Chemotaxis assays and measurement of calcium mobilization. Chemotaxis assays were performed using 48-well chemotaxis chambers (Deng X. et al. 1999 Blood 94:1165-1673). The results were expressed as the mean number (±SD) of migrated cells in three high-powered fields in three replicate samples. Chemotaxis index, which represented the fold increase in the number of cells migrated in response to chemoattractants over the cell response to control medium, also was used. Ca^+ mobilization was measured by stimulating fura-2 AM-loaded human monocytes or receptor-transfected cells with various agents (Deng X. et al. 1999 Blood 94:1165-1673; Su S. B. et al. 1999 J Exp Med 189:395-402) and recording the ratio of fluorescence at 340 and 380 nm in a luminescence spectrometer with FL WinLab program (Perkin-Elmer, Beaconsfield, UK).

[2] = target: T1, FPRL1 (Homo sapiens, UniProt P25090); assay: Chemotaxis of FPRL1/293 cells; type: cell-based
T1 construct: expressed in transfected cells; host or cells: HEK 293
T1 sequence (P25090 1-351): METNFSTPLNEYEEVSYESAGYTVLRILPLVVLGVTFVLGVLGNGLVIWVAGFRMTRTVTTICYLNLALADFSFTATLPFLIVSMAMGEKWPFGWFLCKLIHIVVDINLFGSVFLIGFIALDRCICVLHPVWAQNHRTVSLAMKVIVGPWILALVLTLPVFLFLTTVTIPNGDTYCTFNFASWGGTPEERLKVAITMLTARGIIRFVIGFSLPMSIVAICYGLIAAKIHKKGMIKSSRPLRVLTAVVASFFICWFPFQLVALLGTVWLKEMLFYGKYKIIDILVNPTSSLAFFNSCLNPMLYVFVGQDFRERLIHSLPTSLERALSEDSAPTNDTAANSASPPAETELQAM
Description: (§3) Reagents and cells. Aβ peptide (Aβ42) and the peptide with reversed sequence (Aβ42-1) were purchased from California Peptide Research (Napa, Calif.). All peptides were examined for endotoxin contamination and were negative at highest concentrations used in the study. Human peripheral blood monocytes were isolated from buffy coats (National Institutes of Health Clinical Center, Bethesda, Md.) enriched for mononuclear cells by using iso-osmotic Percoll gradient. The purity of the cell preparations was examined by morphology and was >90%. […]
as §2, with “Chemotaxis assays were performed using 48-well chemotaxis chambers (Deng X. et al. 1999 Blood 94:1165-1673).” left out, “Chemotaxis index, which represented the fold increase in the number of cells migrated in response to chemoattractants over the cell response to control medium, also was used.” left out

[3] = target: T1, FPRL1; assay: FPRL1 internalization in FPRL1/293 cells, fluorescence confocal microscopy; type: cell-based
Experimental: (§4) Human peripheral blood monocytes (PBM) were isolated from Buffy coats (Transfusion Medicine Department, NIH Clinical Center, Bethesda, Md.) by using iso-osmotic Percoll gradient. The purity of cell preparations by morphology was >90%. PBM were further differentiated to macrophages by culturing the cells in RPMI 1640 medium containing 0.1% bovine serum albumin, 0.01M HEPES (pH 7.4), and 20 ng/ml monocyte colony stimulating factor (MCSF, Pepro Tech, Rocky Hill, N.J.). The cells were plated on 4-well chamber slides (Nalge Nunc International, Rochester, N.Y.) at a density of 1×10^5 cells/well. HEK293 cells genetically engineered to express FPRL1 cDNA (FPRL1/293 cells) were kindly provided by Dr. P. M. Murphy (National Institute of Allergy and Infectious Diseases, NIH). FPRL1/293 cells were suspended in DMEM supplemented with 10% FBS (Hyclone, Logan, Utah), 1 mM glutamine (Gibco-BRL, Grand Island, N.Y.), and 800 μg/ml geneticin (G418, Gibco-BRL). The cells were also plated on 4-well chamber slides at a density of 2×10^5 cells/well.
Fluorescence confocal microscope. Human macrophages or FPRL1/293 cells grown on chamber slides were treated with FPRL1 agonists for different periods at 37° C. The cells were fixed in 4% paraformaldehyde for 10 min at room temperature. Slides were washed with PBS and incubated with 5% normal goat serum (Sigma) in PBS, 0.05% Tween-20 (PBS-T-NGS), for 1 h to block nonspecific binding sites and for permeabilization. The anti-Aβ42 and anti-FPRL1 antibodies were applied and the slides were incubated for 1 h at room temperature. […] The slides were mounted with an anti-fade, water-based mounting medium with 4,6-diamidino-2-phenylindole (DAPI; Vector Lab, Burlingame, Calif.) and analyzed under a laser scanning confocal fluorescence microscope (Leica TCS-4D DMIRBE, Heidelberg, Germany). Excitation wavelengths of 365 (for DAPI), 488 (for FITC), and 568 (for rhodamine) nm were used to generate fluorescence emission in blue, green, and red respectively. […]

[4] = target: T1, FPRL1; assay: Aβ42/FPRL1 internalization in human macrophages, fluorescence confocal microscopy; type: cell-based; details: 30 min incubation at 37° C.
Experimental: as §4, with “FPRL1/293 cells were suspended in DMEM supplemented with 10% FBS (Hyclone, Logan, Utah), 1 mM glutamine (Gibco-BRL, Grand Island, N.Y.), and 800 μg/ml geneticin (G418, Gibco-BRL). The cells were also plated on 4-well chamber slides at a density of 2×10^5 cells/well.” left out
Fluorescence confocal microscope. […] The slides were mounted with an anti-fade, water-based mounting medium with 4,6-diamidino-2-phenylindole (DAPI; Vector Lab, Burlingame, Calif.) and analyzed under a laser scanning confocal fluorescence microscope (Leica TCS-4D DMIRBE, Heidelberg, Germany). Excitation wavelengths of 365 (for DAPI), 488 (for FITC), and 568 (for rhodamine) nm were used to generate fluorescence emission in blue, green, and red respectively. […]

[5] = system: macrophages; assay: Congo red histochemistry of macrophages (fibril formation); type: cell-based, human
Experimental: Congo red histochemistry. Cells on chamber slides were fixed with 4% paraformaldehyde and stained with hematoxylin for 2 min at room temperature. After 20 min incubation in a saturated NaCl solution containing 80% ethanol and 0.1% NaOH, the slides were reacted for 20 min with 0.2% Congo red. Destaining and dehydration were completed by washing the slides sequentially in 95% ethanol and 100% ethanol, followed by xylene. Coverslips were applied using Permount and the slides were viewed under light microscopy.

[6] = system: human monocytes; assay: Ca2+ mobilization in fura-2 loaded human monocytes; type: cell-based
Description: as §1, §2

[7] = target: T1, FPRL1; assay: Ca2+ mobilization in FPRL1/293 cells; type: cell-based
Description: as §3
as §2, with “Chemotaxis assays were performed using 48-well chemotaxis chambers (Deng X. et al. 1999 Blood 94:1165-1673).” left out, “Chemotaxis index, which represented the fold increase in the number of cells migrated in response to chemoattractants over the cell response to control medium, also was used.” left out

[8] = system: mouse neutrophils; assay: Superoxide production in mouse neutrophils (Diogenes chemiluminescence); type: cell-based
Experimental: The cell population was consistently composed of >90% neutrophils, as determined by light microscopy of DiffQuick-stained cytospins. Thus, hereafter we will refer to this cell preparation as neutrophils. Superoxide Production. […] Then a mixture of the superoxide-specific chemiluminescence indicator reagent Diogenes (National Diagnostics, Atlanta, Ga.) was added to the cells (50% of total reaction volume) with appropriate stimuli or vehicle control, and superoxide dismutase-inhibitable chemiluminescence was measured in a luminometer (Labsystems Luminoskan; Helsinki, Finland). […] For sequential stimulation experiments, 5×10^4 FPR −/− neutrophils were distributed into microcentrifuge tubes, and test substances were added. The mixture was then immediately transferred to a chemiluminescence plate. After incubation at 37° C. for 8 min (when fMLF was the first stimulus) or 9 min (when Aβ was the first stimulus), Diogenes reagent plus the final stimulus was added, and the activity was monitored for 10 min. […] Each condition was tested in triplicate, and the mean of the mean number (grand mean) of superoxide dismutase-inhibitable relative light units throughout the duration of the assay and the corresponding standard errors of grand means were calculated. […]

[9] = system: mouse neutrophils; details: neutrophils from wild type mice, cited from earlier work
[10] = target: T2, FPR (Homo sapiens, UniProt P21462); assay: Ca2+ mobilization in ETFR cells (RBL-2H3 transfected with epitope-tagged FPR); type: cell-based
T2 construct: expressed in transfected cells; host or cells: RBL-2H3 (rat basophilic leukemia)
T2 sequence (P21462 1-350): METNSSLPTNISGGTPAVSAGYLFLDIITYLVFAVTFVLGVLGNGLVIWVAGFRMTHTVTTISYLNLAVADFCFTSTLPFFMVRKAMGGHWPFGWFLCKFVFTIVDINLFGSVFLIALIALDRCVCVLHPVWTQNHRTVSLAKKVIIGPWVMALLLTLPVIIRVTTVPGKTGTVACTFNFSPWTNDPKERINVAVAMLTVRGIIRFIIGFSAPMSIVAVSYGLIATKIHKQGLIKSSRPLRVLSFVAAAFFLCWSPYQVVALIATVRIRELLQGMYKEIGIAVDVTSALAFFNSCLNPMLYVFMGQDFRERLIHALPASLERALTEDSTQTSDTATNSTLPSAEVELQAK
Description: as §3
as §2, with “Chemotaxis assays were performed using 48-well chemotaxis chambers (Deng X. et al. 1999 Blood 94:1165-1673).” left out, “Chemotaxis index, which represented the fold increase in the number of cells migrated in response to chemoattractants over the cell response to control medium, also was used.” left out

[11] = system: macrophages; assay: Apoptosis of macrophages (annexin-V-FITC/PI flow cytometry); type: cell-based, human; details: 48 h; 10 μM Aβ42 or 1 μM W pep
Experimental: (§5) Detection of apoptosis. Apoptotic cells were detected by double labeling with annexin-V-FITC and propidium iodide (P1). Annexin-V binds to phosphatidylserine residues, which are translocated from the inner to the outer leaflet of the plasma membrane during the early stages of apoptosis (Koopman G. et al. 1994 Blood 84:1415-1420; Martin S. J. et al. 1995 J Exp Med 182:1545-1556). Necrotic cells were distinguished from annexin-V-positive cells by counterstaining with PI (final concentration 1 μg/ml) (Heidenreich S. et al. 1997 J Immunol 159:3178-3188; Mangan D. F. et al. 1991 J Immunol 146:1541-1546. Apoptotic cells were labeled by using an annexin-V kit according to manufacturer's instructions (Santa Cruz Biotechnology, Santa Cruz, Calif.) and analyzed by flow cytometry.

[12] = system: FPRL1/293 cells; assay: Apoptosis of FPRL1/293 cells (annexin-V-FITC/PI flow cytometry); type: cell-based, human; details: 48 h; 10 μM Aβ42 or 1 μM W pep
Experimental: as §5

[13] = target: mouse N-formylpeptide receptor 2 (FPR2), on transfected HEK 293 cells or endogenous on mouse neutrophils and N9 microglial cells (mouse) (UniProt O88536); assay: cell-based or functional assay
Sequence of mouse N-formylpeptide receptor 2 (FPR2), on transfected HEK 293 cells or endogenous on mouse neutrophils and N9 microglial cells (mouse) (O88536 whole entry): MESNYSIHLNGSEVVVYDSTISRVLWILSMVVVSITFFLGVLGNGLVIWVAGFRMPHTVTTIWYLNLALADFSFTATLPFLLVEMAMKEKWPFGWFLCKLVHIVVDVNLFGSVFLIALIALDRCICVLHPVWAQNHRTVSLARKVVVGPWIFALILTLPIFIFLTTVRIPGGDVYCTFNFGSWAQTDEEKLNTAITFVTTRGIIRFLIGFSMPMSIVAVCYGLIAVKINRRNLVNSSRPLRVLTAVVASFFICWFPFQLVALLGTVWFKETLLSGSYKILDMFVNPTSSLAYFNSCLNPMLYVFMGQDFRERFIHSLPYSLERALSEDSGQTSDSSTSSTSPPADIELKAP

Compound: COc1cc2c(c(OC)c1OC)-c1ccc(OC)c(=O)cc1[C@@H](NC(C)=O)CC2 [colchicine]
- inhibition of Aβ42-induced chemotaxis ([1]; monocytes): potent inhibitor of Aβ42-induced chemotaxis
- inhibition of Aβ42-induced chemotaxis [2]: potent inhibitor of Aβ42-induced chemotaxis
- effect on internalization of Aβ42/FPRL1 complexes ([3]; 30 min incubation at 37° C.): failed to internalize
- effect on internalization of Aβ42/FPRL1 complexes [4]: failed to internalize
- effect on Congo red staining of macrophages incubated with Aβ42 ([5]; 48 h incubation with Aβ42): not significantly stained with Congo red

Compound: CSCC[C@H](NC=O)C(=O)N[C@@H](CC(C)C)C(=O)N[C@@H](Cc1ccccc1)C(=O)O [fMLF, formyl-methionyl-leucyl-phenylalanine]
- effect of prior stimulation on subsequent Ca2+ flux response of monocytes to Aβ42 (desensitization) [6]: clearly inhibited the subsequent Ca^2+ flux response to Aβ42
- desensitization of Aβ42-induced Ca2+ flux in FPRL1/293 cells ([7]; prior stimulation): desensitized
- difference of EC50 of superoxide generation, FPR −/− versus FPR+/+ neutrophils [8]: 10 fold
- effect of pretreatment on superoxide response to 10 μM Aβ ([8]; FPR −/− neutrophils, pretreated with 5 μM fMLF vs vehicle): markedly attenuated
- optimum of second peak of chemotaxis dose-response curve [9]: 10 µM
- optimum of first peak of chemotaxis dose-response curve ([9]; peak due to FPR): ~500 nM

Compound: Aβ42 “aged”: Aβ42 aged at 37° C., tested as the aggregated form
- induction of monocyte migration [1]: lower potency than freshly dissolved peptide

Compound: GlyBSA: Glycated bovine albumin, a reported ligand for RAGE
- Ca2+ mobilization in human monocytes [6]: potent inducer of Ca^2+ mobilization
- effect of prior stimulation on subsequent Ca2+ flux response of monocytes to Aβ42 (desensitization) [6]: able to cross-desensitize the cell response to Aβ42
- Ca2+ mobilization in FPRL1/293 cells [7]: stimulated Ca^2+ mobilization
- Ca2+ mobilization in ETFR cells [10]: stimulated Ca^2+ mobilization

Compound: WKYMVm [W pep]
- time to maximal FPRL1 internalization ([3]; 37° C.): 15 to 30 min
- time until FPRL1 is back on the cell surface after removal of agonist (receptor recycling) ([3]; agonist removed after 30 min): 2 h
- apoptosis [11]: did not increase the apoptosis
- apoptosis [12]: did not increase the apoptosis
- Congo red positive fibrils ([5]; incubation 24 h to 48 h): did not form Congo red positive fibrils

Compound: bacterial chemotactic peptide formyl-methionyl-leucyl-phenylalanine (fMLF)
- superoxide generation in neutrophils, EC50 in FPR -/- against FPR +/+ cells [13]: 10 fold

Compound: fucoidan
- Ca2+ mobilization in human monocytes [6]: did not induce Ca^2+ mobilization
- effect of prior stimulation on subsequent Ca2+ flux response of monocytes to Aβ42 (desensitization) [6]: did not affect monocyte response to subsequent stimulation with Aβ42
